In US6984719B1, “Peptide antagonists of prostaglandin F2α receptor” (Hospital Sainte-Justine, priority 1998, dated 2006):
Ends that are not written are not given here.

Assays:
FP receptor [1] = experiment: Porcine uterine strip ex vivo contraction assay (basal and PGF2α-induced); design: species or system pig; details: 100 μM peptide
Protocol: In ex vivo experiments using porcine uterine strips, the peptides were able to prevent both basal and PGF2α-induced contraction.
Uterine tissues from non-pregnant adult pigs were obtained from a local slaughter house and transported to the laboratory on ice. Uterine myometrial strips of approximately 1 cm in length were set up in organ baths containing Kreb's buffer equilibrated with 21% oxygen at 37° C. as we have described (Potvin, W. et al., 1990, Br. J. Pharmacol. 100:341–347; Varma, D. R. and Chemtob, S., 1993, J. Pharmacol. Expt. Ther. 265:1096–1104). Contractions were recorded by force transducers on Grass-polygraph. Strips were incubated with or without 100 μM peptides for 30 min before adding PGF2α in step-wise increments (10^−9 to 10^−6 M). Data were expressed as percentage increase over the basal level of average tension (g).
A graph of spontaneous uterine contractions (known to be dependent upon prostanoids, mainly PGF2α) in the absence and the presence of 100 μM PCP-8 are shown in FIG. 3A.

FP receptor [2] = target: T1, FP receptor (Sus scrofa, UniProt C6GAG8); experiment: Porcine eyecup model of ex vivo vasomotricity assay, PGF2α-induced constriction of retinal microvessels; design: species or system pig
T1 construct: from tissue; host or cells: eyecup / retinal microvessels of newborn pigs pretreated with ibuprofen
T1 sequence (C6GAG8 1-362): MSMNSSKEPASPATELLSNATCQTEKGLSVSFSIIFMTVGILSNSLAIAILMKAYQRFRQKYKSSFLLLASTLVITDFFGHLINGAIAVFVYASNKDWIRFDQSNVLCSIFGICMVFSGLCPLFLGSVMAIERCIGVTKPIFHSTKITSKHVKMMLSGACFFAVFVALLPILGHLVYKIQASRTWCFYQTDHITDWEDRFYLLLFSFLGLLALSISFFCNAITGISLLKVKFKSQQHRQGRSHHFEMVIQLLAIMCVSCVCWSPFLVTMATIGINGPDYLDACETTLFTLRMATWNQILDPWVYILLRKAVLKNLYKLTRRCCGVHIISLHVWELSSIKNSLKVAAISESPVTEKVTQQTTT
Text: In order to see if the peptides could inhibit FP function using an ex vivo model, we chose porcine eyecup model, an ex vivo assay of vascular constriction in porcine retinas which we previously described and validated (Li et al., 1996 J. Pharmacol. Expt. Therapeut. 278: 370–377; Li et al., 1997 Am. J. Physiol. 273: R1283–90; Abran et al., 1997 Am. J. Physiol. 272: R995–1001). Since FP receptor densities in newborn vasculature are minimal due to down regulation by high levels of circulating prostaglandins in the perinatal period, the newborn pigs were treated with a prostaglandin synthetase blocker, ibuprofen (30 mg/Kg of bodyweight/8 h for 24 h) to increase the density of the receptors as well as their vasomotor effects. By inhibiting circulating prostaglandins, we were able to show potent inhibition of FP receptor-mediated second messenger synthesis as well as FP-mediated vascular constriction in this eyecup model.
(§1) To prepare eyecups, a circular incision was made 3–4 mm posterior to ora serrata to remove the […] segment and vitreous body with minimal handling of the retina. The remaining eyecup was fixed with pins to a wax base in a 20 ml tissue bath containing 20 ml of Kreb's buffer (pH 7.35–7.45), protease inhibitors, leupetin and aprotinin (10 μg/ml each), and equilibrated with 21% oxygen and 5% carbon dioxide at 37° C. The preparations were allowed to stabilize for 30 min. Peptides at 100 μM were added and incubation was continued for 30 min before the addition of PGF2α.
(§2) Cumulative concentration-responses of PGF2α, and TxA2 mimetic, U46619, (10^−10 to 10^−5 M) curves were constructed separately. To assess the reversibility of the antagonists, the eyecups were thoroughly washed (which would wash away the peptide) with incubation medium and concentration response curves for PGF2α were determined. The outer vessel diameter was recorded with a video camera mounted on a dissecting microscope (Zeiss M 400™) and the responses were quantified by a digital image analyzer (Sigma Scan Software, Jandel Scientific, Corte Madera, Calif.). Vascular diameter was recorded before and 10 min following the topical application of the agent.
^1Percent vasomotor response in the presence of 100 μM peptide is calculated as percent change in average vascular diameter produced by 10^−7 M PGF2α to the eyecup in the presence of the peptide compared to maximal constriction observed in the absence of the peptide.
^2Percent inhibition produced by each peptide is calculated as (100-percent vasomotor response).
Small letters indicate L-amino acids and capital letters indicate D-amino acids. I=isoleucine; L=leucine; G=glycine; H=histidine; R=Arginine; D=Aspartic acid; Y=Tyrosine; K=Lysine; A=Alanine; W=Tryptophan; E=Glutamic acid; F=Phenyl alanine; Q=Glutamine; N=Aspargine; P=Proline; S=Serine; X=Cyclohexyl alanine. Peptides were dissolved in DMSO freshly just before the experiment as 10 mM stocks and added to the eye cups 30 min before the addition of 10^−7 M PGF2α.
These peptides incorporate L- to D-amino acid changes, deletions, subtle variations in aromaticity, hydrogen bond donor status as opposed to ionic interactions and hydrophobicity.

human FP receptor = target: T2, human FP receptor (Homo sapiens, UniProt P43088); experiment: PGF2α-induced phosphoinositide hydrolysis (inositol phosphate synthesis) in HEK293 cells expressing FP receptor; format: cell-based; details: 1 μM PGF2α
T2 construct: expressed in transfected cells
T2 sequence (P43088 whole entry): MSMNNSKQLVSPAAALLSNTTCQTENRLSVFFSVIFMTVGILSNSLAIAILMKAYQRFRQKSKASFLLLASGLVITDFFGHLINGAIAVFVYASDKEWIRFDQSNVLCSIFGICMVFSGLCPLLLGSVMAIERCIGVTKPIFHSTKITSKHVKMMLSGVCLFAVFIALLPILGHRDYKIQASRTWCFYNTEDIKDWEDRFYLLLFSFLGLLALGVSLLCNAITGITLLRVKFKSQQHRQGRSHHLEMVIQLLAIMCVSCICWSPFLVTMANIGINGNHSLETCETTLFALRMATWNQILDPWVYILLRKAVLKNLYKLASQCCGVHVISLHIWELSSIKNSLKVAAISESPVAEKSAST
Protocol: Both PCP-8 and -10 were tested in HEK293 cells expressing the human FP receptor. For this purpose, HEK 293 cells stably expressing human FP receptor were plated in 12-well plates in DMEM medium containing 10% fetal bovine serum, penicillin (10 U/ml) and streptomycin (10 μg/ml) and cultured in a humidified atmosphere containing 5% CO2 at 37° C. After the wells were 80% confluent, the cells were labeled with 2 μCi/ml of [^3H]-myo inositol overnight. Next day, the cells were washed once with PBS, and incubated in 0.5 ml of Kreb's buffer containing 10 mM LiCl and indicated concentrations of PCP peptides for 30 min. PGF2α at 1 μM was added to the cells and the incubation was carried out for an additional 30 min. The cells were solubilized with 0.1 N NaOH for 10 min and neutralized with 0.1 N formic acid. The lysates were collected and 1 ml each of methanol and chloroform were sequentially added and vortexed briefly. After centrifugation to separate the phases, inositol phosphates were separated by ion exchange chromatography as described below (Berridge, M. J. et al., 1983, Biochem. J. 212:473–482).
Briefly, the medium was discarded and the IP3 synthesis was stopped by adding 0.6 ml ice-cold methanol. The cells were scraped and collected into polypropylene tubes. Distilled water (0.5 ml) and chloroform (0.6 ml) were added and vigorously vortexed for 2 min. The phases were separated by centrifugation at 6000×g for 10 min. The aqueous phase was applied to AG-1X-8™ (Formate form) anion exchange columns (1 ml bed volume) and free inositol was eluted with 10 ml of water, followed by 60 mM ammonium formate in 0.1 M formic acid. Then, the inositol phosphates were eluted with 5 ml of 1.2 M ammonium formate in 0.1 M formic acid. After adding 3 volumes of scintillation cocktail (Optiphase-HiSafe III), the eluates were counted by scintillation spectrophotometry.
Data are expressed as fold stimulation of inositol phosphate synthesis by 1 μM PGF2α compared to the unstimulated controls. […] The half maximal inhibitory concentrations for both PCP-8 and -10 were slightly less than 100 μM.

TP receptor = experiment: Porcine eyecup model of ex vivo vasomotricity assay, constriction by TxA2 mimetic U46619; design: species or system pig; details: peptide 100 μM; 1 μM U46619 / dose response
Protocol: as §1, §2
The peptide PCP-10 had no effect on the basal tone (diameter of the microvessel) of the vessel (FIG. 2A; left panels). […]

Substance: ILGHRDYK-OH [PCP-8, ilghrdyk]
- reduction in uterine contraction (FP receptor [1]; all concentrations of PGF2α tested (10^−9 to 10^−6 M)): More than 60%
- effect on spontaneous (basal) uterine contraction (FP receptor [1]; porcine uterine strips): reduced the force of basal contraction
- Emax (FP receptor [2]; 100 μM peptide, 10^−7 M PGF2α, calculated as 100-percent vasomotor response, read-out: % inhibition of maximal response): 50%
- effect on vasomotor responses in PGF2α dose response (FP receptor [2]; peptide 100 μM, even at concentrations exceeding 1 μM of PGF2α): abrogated the vasomotor responses
- IC50 (human FP receptor; HEK293 cells stably expressing human FP receptor, read-out: half maximal inhibitory concentration, inositol phosphate synthesis): < 100 µM
- inhibition of inositol phosphate synthesis initiated by PGF2α (human FP receptor; peptide at 100 μM): potently inhibited
- effect on vasoconstriction by TxA2 mimetic U46619 (TP receptor): no effect
